Test results from ChEMBL document CHEMBL3244263, “Derivatives of 1,2,3,11a-tetrahydro-5H-pyrrolo[2,1-c][1,4]benzodiazepine-5,11(10H)-dione as anxiolytic agents” (J Med Chem, 1978).
Active and inactive are the calls of the source. The calls are words filed in the database; no cut-off is given here.

Legend:
Rattus norvegicus [1] = assay: Anxiolytic activity in po dosed rat assessed as protection against pentylenetetrazole-induced seizures administered in 2% starch; format: functional
Rattus norvegicus [2] = species: Rattus norvegicus; assay: Drug metabolism in rat treated with 10-methyl-2,3-dihydro-1H-benzo[e]pyrrolo[1,2-a][1,4]diazepine-5,11(10H,11aH)-dione; format: ADME, organism-based; settings: in vivo
Rattus norvegicus [3] = species: Rattus norvegicus; assay: Toxicity in rat assessed as depression; format: organism-based; settings: in vivo
Rattus norvegicus [4] = species: Rattus norvegicus; assay: Drug metabolism in rat assessed as 2,3-dihydro-1H-benzo[e]pyrrolo[1,2-a][1,4]diazepine-5,11(10H,11aH)-dione formation; format: ADME, organism-based; settings: in vivo
Rattus norvegicus [5] = species: Rattus norvegicus; assay: Drug metabolism in rat assessed as aliphatic hydroxylated product formation; format: ADME, organism-based; settings: in vivo
Rattus norvegicus [6] = species: Rattus norvegicus; assay: Drug metabolism in rat assessed as monohydroxylated product formation; format: ADME, organism-based; settings: in vivo
Rattus norvegicus [7] = species: Rattus norvegicus; assay: Drug metabolism in rat assessed as dihydroxylated product formation; format: ADME, organism-based; settings: in vivo
Rattus norvegicus [8] = species: Rattus norvegicus; assay: Drug metabolism in rat assessed as 3,11a-dihydroxy-10-methyl-2,3-dihydro-1H-benzo[e]pyrrolo[1,2-a][1,4]diazepine-5,11(10H,11aH)-dione formation by GC-MS/NMR analysis; format: ADME, organism-based; settings: in vivo
Mus musculus = species: Mus musculus; assay: Anxiolytic activity in mouse assessed as suppression of pentylenetetrazole-induced convulsion; format: functional, organism-based
Canis familiaris = species: Canis familiaris; assay: Anxiolytic activity in dog assessed as suppression of pentylenetetrazole-induced convulsion; format: functional, organism-based; settings: Canis lupus familiaris
Rattus norvegicus [9] = species: Rattus norvegicus; assay: Anxiolytic activity in thirsty rat by increased conflict responding test; format: functional, organism-based
Squirrel monkey = assay: Anxiolytic activity in squirrel monkey by conflict responding test; format: functional, organism-based; settings: Saimiri sciureus
Homo sapiens = species: Homo sapiens; assay: Anxiolytic activity in human; format: functional, organism-based
[10] = Rattus norvegicus, po, read-out: ED50

## O=C1Nc2ccc(F)cc2C(=O)N2CCCC12 (configuration not stated)
Rattus norvegicus [1]; [10]
  ED50: 23 mg/kg

## CN1C(=O)C2(O)CCC(O)N2C(=O)c2ccccc21 (configuration not stated)
Rattus norvegicus [2]
  Drug metabolism: metabolite_detected

## CN1C(=O)C2CCCN2C(=O)c2cc(F)ccc21 (single isomer, unassigned; (+))
Rattus norvegicus [1]; [10]
  ED50: 3.9 mg/kg

## CN1C(=O)C2CCCN2C(=O)c2ccccc21 (single isomer, unassigned; (+)) [listing 1 of 2 here]
Rattus norvegicus [1]
  ED50: 9.9 mg/kg
Rattus norvegicus [3]
  Activity: Non-toxic
Rattus norvegicus [4]
  Drug metabolism: metabolite_detected
Rattus norvegicus [5]
  Drug metabolism: metabolite_detected
Rattus norvegicus [6]
  Drug metabolism: metabolite_detected
Rattus norvegicus [7]
  Drug metabolism: metabolite_detected
Rattus norvegicus [8]
  Drug metabolism: metabolite_detected

## O=C1Nc2ccccc2C(=O)N2CCCC12 (single isomer, unassigned; (+))
Rattus norvegicus [1]; [10]
  ED50: 35 mg/kg

## CN1C(=O)C2CCCN2C(=O)c2ccccc21 (single isomer, unassigned; (+)) [listing 2 of 2 here]
Mus musculus
  Activity: Active
Canis familiaris
  Activity: Active
Rattus norvegicus [9]
  Activity: Active
Squirrel monkey
  Activity: Active
Homo sapiens
  Activity: inactive

## CN1C(=O)C2CCCN2C(=O)c2ccccc21 (single isomer, unassigned; (-))
Rattus norvegicus [1]
  ED50: >200 mg/kg

## CN1C(=O)C2CCCN2C(=O)c2ccccc21 (stereo in doubt; 2)
Rattus norvegicus [1]
  ED50: 20.2 mg/kg

## CNC1=Nc2ccc(Cl)cc2C(c2ccccc2)=[N+]([O-])C1 [CHLORDIAZEPOXIDE]
Rattus norvegicus [1]; [10]
  ED50: 2.5 mg/kg
Rattus norvegicus [3]
  Activity: Toxic

## CN1C(=O)CN=C(c2ccccc2)c2cc(Cl)ccc21 [DIAZEPAM]
Rattus norvegicus [3]
  Activity: Toxic

## CCCC(C)(COC(N)=O)COC(N)=O [MEPROBAMATE]
Rattus norvegicus [1]; [10]
  ED50: 21.5 mg/kg
